One assay addresses T1, TYK2 JH2 (Homo sapiens, UniProt P29597).
T1 construct: purchased DiscoverX (KINOMEscan KdELECT service); host or cells: E. coli BL21-derived (T7 phage display) or HEK-293
As to the kind of experiment: TYK2 JH2 binding assay (KINOMEscan KdELECT competitive binding). Particulars: TYK2 JH2 domain, DiscoverX KINOMEscan KdELECT (Assay A); read-out: Biochemical TYK2_DiscoverX_JH2_BND_Kd. In outline: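 JH2-domain fragment, expressed as T7 phage tag in BL21-derived E. coli or DNA-tagged from HEK-293, competed with test compound against bead-immobilized biotinylated ligand in binding buffer (0.9% DMSO). 1 h shaking at room temperature; bound kinase eluted with 0.5 μM free ligand and quantified by qPCR. Kd from 11-point 3-fold dilutions.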

Assay [1] concerns JAK1/TYK2 pSTAT5 (Tyr694/699) in THP-1 cell line. As to the kind of experiment: IFNa-stimulated JAK1/TYK2 pSTAT5 (Tyr694/699) inhibition cellular assay, AlphaLISA. The assay is classed as cell-based. Conditions: Homo sapiens; THP-1 cells, IFNa-stimulated, AlphaLISA (Assay B); read-out: Cellular_THP1_IFNa-pSTATS_TYK2. Summed up: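 pSTAT5 (Tyr694/699) in lysates quantified by AlphaLISA (615 nm) after 30 min IFNa stimulation (100 ng/mL stock) of THP-1 cells. The cells, 2e4 per well in HBSS, had first been exposed 1 h at 37° C. to eight 6-fold compound dilutions, 10000 down to 0.04 nM final. IC50 fitted by 4PL regression, bottom 0, Hill slope −1.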
(Alpha assays give light when donor and acceptor beads are brought close together.)

T1 sequence (P29597 589-875 limits assumed): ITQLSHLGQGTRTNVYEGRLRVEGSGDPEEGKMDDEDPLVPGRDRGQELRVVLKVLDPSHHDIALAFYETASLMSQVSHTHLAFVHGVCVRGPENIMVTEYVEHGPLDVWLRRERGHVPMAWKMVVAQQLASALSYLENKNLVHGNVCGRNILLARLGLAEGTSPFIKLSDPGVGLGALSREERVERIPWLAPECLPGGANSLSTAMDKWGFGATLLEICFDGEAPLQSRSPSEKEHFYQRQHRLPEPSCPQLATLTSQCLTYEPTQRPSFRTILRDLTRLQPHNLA

As to `CNc1ncc(-c2nc3cccc(C)c3o2)c2cc(NC(=O)C3CC3)ncc12` [Example 205, N-(8-(methylamino)-5-(7-methylbenzo[d]oxazol-2-yl)-2,7-naphthyridin-3-yl)cyclopropanecarboxamide], at TYK2 JH2, the Kd was at most 100 nM. Further, the IC50 in assay [1] is at most 500 nM.
Turning to `CNc1ncc(-c2nc3ccc(C)cc3o2)c2cc(NC(=O)C3CC3)ncc12` [Example 206, N-(8-(methylamino)-5-(6-methylbenzo[d]oxazol-2-yl)-2,7-naphthyridin-3-yl)cyclopropanecarboxamide], the Kd at TYK2 JH2 is at most 100 nM. The IC50 in assay [1] is at most 500 nM.
For `CNc1ncc(-c2nc3cc(C)ccc3o2)c2cc(NC(=O)C3CC3)ncc12` [Example 207, N-(8-(methylamino)-5-(5-methylbenzo[d]oxazol-2-yl)-2,7-naphthyridin-3-yl)cyclopropanecarboxamide], in that order: at most 100 nM and at most 500 nM.
For the compound `CNc1ncc(-c2nc3cccc(OC)c3o2)c2cc(NC(=O)C3CC3)ncc12` [Example 208, N-(5-(7-methoxybenzo[d]oxazol-2-yl)-8-(methylamino)-2,7-naphthyridin-3-yl)cyclopropanecarboxamide], the Kd at TYK2 JH2 was at most 100 nM. Moreover, in assay [1], the IC50 was at most 500 nM.
Consider `CNc1ncc(-c2nc3cc(Br)ccc3o2)c2cc(NC(=O)C3CC3)ncc12` [Example 209, N-(5-(5-bromobenzo[d]oxazol-2-yl)-8-(methylamino)-2,7-naphthyridin-3-yl)cyclopropanecarboxamide], for which the Kd at TYK2 JH2 was at most 100 nM. The IC50 in assay [1] is at most 500 nM.
In the case of `CNc1ncc(-c2nc3cc(C#N)ccc3o2)c2cc(NC(=O)C3CC3)ncc12` [Example 210, N-(5-(5-cyanobenzo[d]oxazol-2-yl)-8-(methylamino)-2,7-naphthyridin-3-yl)cyclopropanecarboxamide], the Kd at TYK2 JH2 was at most 100 nM. In assay [1], the IC50 is at most 500 nM.
Consider `CNc1ncc(-c2nc3cccc(Cl)c3o2)c2cc(NC(=O)C3CC3)ncc12` [Example 211, N-(5-(7-chlorobenzo[d]oxazol-2-yl)-8-(methylamino)-2,7-naphthyridin-3-yl)cyclopropanecarboxamide], for which the Kd on TYK2 JH2 was at most 100 nM. Moreover, in assay [1], the IC50 is at most 500 nM.
The like results for `CNc1ncc(-c2nc3cc(Cl)ccc3o2)c2cc(NC(=O)C3CC3)ncc12` [Example 212, N-(5-(5-chlorobenzo[d]oxazol-2-yl)-8-(methylamino)-2,7-naphthyridin-3-yl)cyclopropanecarboxamide] were, in that order, at most 100 nM and at most 500 nM.
As to `CNc1ncc(-c2nc3ccc(C#N)cc3o2)c2cc(NC(=O)C3CC3)ncc12` [Example 213, N-(5-(6-cyanobenzo[d]oxazol-2-yl)-8-(methylamino)-2,7-naphthyridin-3-yl)cyclopropanecarboxamide], at TYK2 JH2, the Kd was at most 100 nM. The IC50 in assay [1] is at most 500 nM.
`CNc1ncc(-c2nc3cc(C(=O)O)ccc3o2)c2cc(NC(=O)C3CC3)ncc12` [Example 214, 2-(6-(cyclopropanecarboxamido)-1-(methylamino)-2,7-naphthyridin-4-yl)benzo[d]oxazole-5-carboxylic acid]: the Kd at TYK2 JH2 was at most 100 nM. Further, the IC50 in assay [1] is over 500 nM.
For `CNc1ncc(-c2nc3c(O)cccc3o2)c2cc(NC(=O)C3CC3)ncc12` [Example 215, N-(5-(4-hydroxybenzo[d]oxazol-2-yl)-8-(methylamino)-2,7-naphthyridin-3-yl)cyclopropanecarboxamide], in that order: at most 100 nM and at most 500 nM.
The like results for `CNc1ncc(-c2nc3cc(C(C)=O)ccc3o2)c2cc(NC(=O)C3CC3)ncc12` [Example 216, N-(5-(5-acetylbenzo[d]oxazol-2-yl)-8-(methylamino)-2,7-naphthyridin-3-yl)cyclopropanecarboxamide] were, in that order, at most 100 nM and at most 500 nM.
For `CNc1ncc(-c2nc3cc(C(F)(F)F)ccc3o2)c2cc(NC(=O)C3CC3)ncc12` [Example 217, N-(8-(methylamino)-5-(5-(trifluoromethyl)benzo[d]oxazol-2-yl)-2,7-naphthyridin-3-yl)cyclopropanecarboxamide], in that order: at most 100 nM and at most 500 nM.
Consider `CNc1ncc(-c2nc3cc(OC(F)(F)F)ccc3o2)c2cc(NC(=O)C3CC3)ncc12` [Example 218, N-(8-(methylamino)-5-(5-(trifluoromethoxy)benzo[d]oxazol-2-yl)-2,7-naphthyridin-3-yl)cyclopropanecarboxamide], for which the Kd on TYK2 JH2 was at most 100 nM. Besides, the IC50 in assay [1] is at most 500 nM.
For `CNc1ncc(-c2nc3ccc(Cl)cc3o2)c2cc(NC(=O)C3CC3)ncc12` [Example 219, N-(5-(6-chlorobenzo[d]oxazol-2-yl)-8-(methylamino)-2,7-naphthyridin-3-yl)cyclopropanecarboxamide], in that order: at most 100 nM and at most 500 nM.
For `CNc1ncc(-c2nc3c(N4CCC4COC)cccc3o2)c2cc(NC(=O)C3CC3)ncc12` (centres unmarked) [Example 220, N-(5-(4-(2-(methoxymethyl)azetidin-1-yl)benzo[d]oxazol-2-yl)-8-(methylamino)-2,7-naphthyridin-3-yl)cyclopropanecarboxamide], in that order: at most 100 nM and over 500 nM.
The like results for `CNc1ncc(-c2nc3c(N4CC(OC)C4)cccc3o2)c2cc(NC(=O)C3CC3)ncc12` [Example 221, N-(5-(4-(3-methoxyazetidin-1-yl)benzo[d]oxazol-2-yl)-8-(methylamino)-2,7-naphthyridin-3-yl)cyclopropanecarboxamide] were, in that order, at most 100 nM and at most 500 nM.
As to `CNc1ncc(-c2nc3c(OC4CC4)cccc3o2)c2cc(NC(=O)C3CC3)ncc12` [Example 222, N-(5-(4-cyclopropoxybenzo[d]oxazol-2-yl)-8-(methylamino)-2,7-naphthyridin-3-yl)cyclopropanecarboxamide], the Kd on TYK2 JH2 is at most 100 nM. Also, in assay [1], the IC50 is at most 500 nM.
Take `CNc1ncc(-c2nc3cc(OC4CC4)ccc3o2)c2cc(NC(=O)C3CC3)ncc12` [Example 223, N-(5-(5-cyclopropoxybenzo[d]oxazol-2-yl)-8-(methylamino)-2,7-naphthyridin-3-yl)cyclopropanecarboxamide]: on TYK2 JH2, the Kd is at most 100 nM. In assay [1], the IC50 is at most 500 nM.
For `CNc1ncc(-c2nc3c(OC)c(OC)ccc3o2)c2cc(NC(=O)C3CC3)ncc12` [Example 224, N-(5-(4,5-dimethoxybenzo[d]oxazol-2-yl)-8-(methylamino)-2,7-naphthyridin-3-yl)cyclopropanecarboxamide], in that order: at most 100 nM and at most 500 nM.
For `CNc1ncc(-c2nc3cc(OC(F)F)ccc3o2)c2cc(NC(=O)C3CC3)ncc12` [Example 225, N-(5-(5-(difluoromethoxy)benzo[d]oxazol-2-yl)-8-(methylamino)-2,7-naphthyridin-3-yl)cyclopropanecarboxamide], in that order: at most 100 nM and at most 500 nM.
For `CNc1ncc(-c2nc3cc(OCC4CC4)ccc3o2)c2cc(NC(=O)C3CC3)ncc12` [Example 226, N-(5-(5-(cyclopropylmethoxy)benzo[d]oxazol-2-yl)-8-(methylamino)-2,7-naphthyridin-3-yl)cyclopropanecarboxamide], in that order: at most 100 nM and at most 500 nM.
With `CNc1ncc(-c2nc3cc(OCCC#N)ccc3o2)c2cc(NC(=O)C3CC3)ncc12` [Example 227, N-(5-(5-(2-cyanoethoxy)benzo[d]oxazol-2-yl)-8-(methylamino)-2,7-naphthyridin-3-yl)cyclopropanecarboxamide], the Kd at TYK2 JH2 is at most 100 nM. Moreover, the IC50 in assay [1] was at most 500 nM.
Consider `CNc1ncc(-c2nc3cc(OC4COC4)ccc3o2)c2cc(NC(=O)C3CC3)ncc12` [Example 228, N-(8-(methylamino)-5-(5-(oxetan-3-yloxy)benzo[d]oxazol-2-yl)-2,7-naphthyridin-3-yl)cyclopropanecarboxamide], for which the Kd at TYK2 JH2 is at most 100 nM. In addition, the IC50 in assay [1] is at most 500 nM.
For `CNc1ncc(-c2nc3cc(OC4CCOC4)ccc3o2)c2cc(NC(=O)C3CC3)ncc12` (centres unmarked) [Example 229, N-(8-(methylamino)-5-(5-((tetrahydrofuran-3-yl)oxy)benzo[d]oxazol-2-yl)-2,7-naphthyridin-3-yl)cyclopropanecarboxamide], in that order: at most 100 nM and at most 500 nM.
The like results for `CNc1ncc(-c2nc3cc(OC4CN(C(C)=O)C4)ccc3o2)c2cc(NC(=O)C3CC3)ncc12` [Example 230, N-(5-(5-((1-acetylazetidin-3-yl)oxy)benzo[d]oxazol-2-yl)-8-(methylamino)-2,7-naphthyridin-3-yl)cyclopropanecarboxamide] were, in that order, at most 100 nM and at most 500 nM.
For `CNc1ncc(-c2nc3cc(OCCOC)ccc3o2)c2cc(NC(=O)C3CC3)ncc12` [Example 231, N-(5-(5-(2-methoxyethoxy)benzo[d]oxazol-2-yl)-8-(methylamino)-2,7-naphthyridin-3-yl)cyclopropanecarboxamide], in that order: at most 100 nM and at most 500 nM.
In the case of `CNc1ncc(-c2nc3cc(O[C@H]4C[C@@H](C#N)C4)ccc3o2)c2cc(NC(=O)C3CC3)ncc12` [Example 232, N-(5-(5-((1s,3s)-3-cyanocyclobutoxy)benzo[d]oxazol-2-yl)-8-(methylamino)-2,7-naphthyridin-3-yl)cyclopropanecarboxamide], the Kd on TYK2 JH2 was at most 100 nM. Besides, the IC50 in assay [1] is at most 500 nM.

For the origin of these results see US20240025906A1 (NEURON23, INC., priority 2022, published 2024).
